Laboratory results reported in ChEMBL document CHEMBL1201862, “PubChem BioAssay data set” (2004).
Calls of active or inactive are those of the source.

Tests used:
[1] = biological target: T1, Adenosylmethionine-8-amino-7-oxononanoate aminotransferase (Mycobacterium tuberculosis, UniProt P9WQ81); assay: Mycobacterium tuberculosis BioA enzyme inhibitor Measured in Biochemical System Using Plate Reader - 2163-02_Inhibitor_Dose_CherryPick_Activity.; format: functional, Mycobacterium tuberculosis UT205
T1 sequence (P9WQ81 whole entry): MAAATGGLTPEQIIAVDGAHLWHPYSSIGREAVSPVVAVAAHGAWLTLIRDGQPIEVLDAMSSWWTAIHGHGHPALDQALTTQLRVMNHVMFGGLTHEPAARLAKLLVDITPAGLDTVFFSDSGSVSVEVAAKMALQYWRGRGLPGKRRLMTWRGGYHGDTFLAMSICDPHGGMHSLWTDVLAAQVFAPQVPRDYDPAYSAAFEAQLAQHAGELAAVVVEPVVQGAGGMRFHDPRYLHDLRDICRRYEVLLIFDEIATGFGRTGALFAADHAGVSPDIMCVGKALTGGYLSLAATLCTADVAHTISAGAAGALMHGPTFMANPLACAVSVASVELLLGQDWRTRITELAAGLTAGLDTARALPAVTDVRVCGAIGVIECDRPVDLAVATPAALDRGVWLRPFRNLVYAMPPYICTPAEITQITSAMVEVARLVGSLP

[2] = cells; format: functional, cell-based
[3] = cells; format: functional, cell-based; remark: listed apart in the source
[4] = cells
[5] = biological target: T2, Oxysterols receptor LXR-beta (Homo sapiens, UniProt P55055); format: functional, cell-based;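 also: Cell-based luminescence dose-response assay of agonist activity at LXR, run as a confirmatory counterscreen to a daf-12 agonist screen; HEK293 cells with Gal4-LXR fusion and GAL4-driven luciferase reporter; agonist potency from rising luciferase signal of a Gal4-LXR reporter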
T2 sequence (P55055 whole entry): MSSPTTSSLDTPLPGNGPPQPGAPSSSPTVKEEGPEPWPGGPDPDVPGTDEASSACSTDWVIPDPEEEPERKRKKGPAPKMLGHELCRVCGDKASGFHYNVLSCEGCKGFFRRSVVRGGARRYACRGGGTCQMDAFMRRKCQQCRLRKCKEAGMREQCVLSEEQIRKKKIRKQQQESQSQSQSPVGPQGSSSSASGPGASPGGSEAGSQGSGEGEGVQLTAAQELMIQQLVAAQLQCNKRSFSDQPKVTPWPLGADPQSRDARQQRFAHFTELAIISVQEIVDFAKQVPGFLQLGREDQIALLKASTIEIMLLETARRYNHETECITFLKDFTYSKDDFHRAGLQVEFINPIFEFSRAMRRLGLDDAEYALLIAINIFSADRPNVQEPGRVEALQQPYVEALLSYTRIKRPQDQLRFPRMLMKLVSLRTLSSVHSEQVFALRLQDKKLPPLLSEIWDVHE

[6] = NIH3T3 cell viability loss – ATP luminescence, mouse fibroblasts, counter-screen, dose response (AID 2010); format: functional, cell-based;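 also: cells exposed to compound for about 90 hours before reading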
[7] = Trypanosoma cruzi growth suppression in host cells – NIH3T3 host cells, beta-gal luminescence, confirmation (AID 2044); format: functional, cell-based;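 also: intracellular parasites grown in NIH/3T3 mouse fibroblasts as host cells; luminescent beta-galactosidase reporter signal from transgenic T. cruzi replicating inside host cells; inhibitors lower the luminescence signal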
[8] = biological target: Induced myeloid leukemia cell differentiation protein Mcl-1 (Homo sapiens, UniProt Q07820); format: functional
[9] = microbe, parasite or virus in culture; format: functional; conditions: Mycobacterium tuberculosis
[10] = HPDE-C7 pancreatic duct cell viability loss – fluorescence, HTS (AID 430); format: functional, cell-based; conditions: Homo sapiens
[11] = viability loss of HPDE-C7K cells – cell-based, fluorescence, HTS, primary screen (AID 431); format: functional; conditions: Homo sapiens
[12] = viability of HCT116 lacking mutant beta-catenin – cell-based, human colon tumor, dose response (AID 1045); format: functional;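 also: HCT116 colon tumor cells with beta catenin knocked out; cells exposed to compound for 60 hours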
[13] = viability of PTEN-deleted HCT116 cells – cell-based, HCT116 PTEN knockout, dose response (AID 1047); format: functional;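 also: HCT116 colon tumor cells with PTEN knocked out; cells exposed to compound for 60 hours before readout; potency for loss of cell viability measured by luminescence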
[14] = biological target: T3, Fatty acid synthase (Homo sapiens, UniProt P49327); assay: inhibition of human FAS-TE enzyme activity – biochemical, kinetic fluorescence intensity, dose response (AID 624326); format: functional;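 also: rate of fluorescence rise from hydrolysis of a fluorogenic O-methyl fluorescein ester substrate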
[15] = biological target: T4, Heat shock factor protein 1 (Mus musculus, UniProt P38532); assay: decrease of HSF1-responsive luciferase luminescence – cell-based, NIH3T3, dose retest, confirmation (AID 2382); format: functional;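 also: NIH3T3 fibroblasts with HSF1-driven luciferase reporter stressed by proteasome inhibitor MG132; luminescence from HSF1-driven luciferase expression after 8 hours of MG132 stress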
T4 sequence (P38532 whole entry): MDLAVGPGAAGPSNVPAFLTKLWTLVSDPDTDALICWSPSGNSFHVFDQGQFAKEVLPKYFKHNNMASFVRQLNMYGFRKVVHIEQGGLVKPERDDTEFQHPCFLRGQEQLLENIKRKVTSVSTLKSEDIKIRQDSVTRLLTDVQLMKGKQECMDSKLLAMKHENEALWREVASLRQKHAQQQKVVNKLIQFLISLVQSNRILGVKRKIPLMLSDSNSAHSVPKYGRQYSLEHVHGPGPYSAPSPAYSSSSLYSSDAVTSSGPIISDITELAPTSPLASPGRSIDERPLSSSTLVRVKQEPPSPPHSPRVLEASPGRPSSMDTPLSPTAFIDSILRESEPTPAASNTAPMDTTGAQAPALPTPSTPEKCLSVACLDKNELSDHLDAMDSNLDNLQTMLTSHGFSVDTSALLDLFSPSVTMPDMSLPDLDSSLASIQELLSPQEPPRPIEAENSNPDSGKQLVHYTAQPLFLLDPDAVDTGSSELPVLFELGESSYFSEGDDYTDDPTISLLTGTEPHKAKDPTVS

[16] = biological target: T3, Fatty acid synthase; assay: inhibition of human FAS-TE enzyme activity – biochemical, endpoint fluorescence intensity, uHTS hits, dose response (AID 624327); format: functional;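 also: fluorescence from hydrolysis of an O-methyl fluorescein acyl ester substrate by the enzyme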
[17] = biological target: Nonstructural protein 1 (Influenza A virus, UniProt Q194T2); format: functional, Influenza A virus (A/California/07/2009(H1N1))
[18] = biological target: T5, CAAX prenyl protease 2 (Saccharomyces cerevisiae S288c, UniProt Q03530); format: biochemical
T5 sequence (Q03530 whole entry): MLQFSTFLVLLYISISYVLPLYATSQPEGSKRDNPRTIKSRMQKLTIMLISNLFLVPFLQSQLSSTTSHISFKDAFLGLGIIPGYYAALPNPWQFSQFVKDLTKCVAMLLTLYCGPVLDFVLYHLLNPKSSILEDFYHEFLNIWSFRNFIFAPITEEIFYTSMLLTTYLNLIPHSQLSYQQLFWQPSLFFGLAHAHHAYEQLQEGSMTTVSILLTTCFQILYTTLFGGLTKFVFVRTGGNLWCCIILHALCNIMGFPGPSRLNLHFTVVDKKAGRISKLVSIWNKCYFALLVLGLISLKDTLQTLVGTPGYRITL

[19] = biological target: T6, Protein RecA (Mycobacterium tuberculosis, UniProt P9WHJ3); assay: Fluorescence Cell-Free Homogeneous Dose Retest to Identify Inhibitors of RecA-Intein Splicing Activity. [Related pubchem assays (depositor defined):AID2097, AID2223, AID489010, AID492950]; format: functional
T6 sequence (P9WHJ3 whole entry): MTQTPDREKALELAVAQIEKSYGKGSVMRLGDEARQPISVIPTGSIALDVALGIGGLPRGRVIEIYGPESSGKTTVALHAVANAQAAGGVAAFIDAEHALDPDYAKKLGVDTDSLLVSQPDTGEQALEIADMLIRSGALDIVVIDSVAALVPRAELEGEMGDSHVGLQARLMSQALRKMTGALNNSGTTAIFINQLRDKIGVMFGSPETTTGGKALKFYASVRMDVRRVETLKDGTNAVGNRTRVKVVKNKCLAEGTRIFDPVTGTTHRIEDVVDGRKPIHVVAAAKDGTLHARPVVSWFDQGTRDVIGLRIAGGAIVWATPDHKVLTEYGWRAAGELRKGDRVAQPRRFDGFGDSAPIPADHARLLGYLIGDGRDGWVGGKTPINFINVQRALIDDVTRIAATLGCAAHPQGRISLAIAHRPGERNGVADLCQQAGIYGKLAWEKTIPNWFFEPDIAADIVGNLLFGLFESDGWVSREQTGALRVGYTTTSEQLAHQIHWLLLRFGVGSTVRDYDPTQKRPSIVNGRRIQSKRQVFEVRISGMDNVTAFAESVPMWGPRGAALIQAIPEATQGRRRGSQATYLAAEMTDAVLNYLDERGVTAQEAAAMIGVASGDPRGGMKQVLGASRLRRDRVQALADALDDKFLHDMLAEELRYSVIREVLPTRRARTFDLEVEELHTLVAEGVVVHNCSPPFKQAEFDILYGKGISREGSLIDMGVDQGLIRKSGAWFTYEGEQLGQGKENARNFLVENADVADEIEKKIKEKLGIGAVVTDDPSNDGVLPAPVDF

[20] = biological target: T7, Replicative DNA helicase DnaB (Mycobacterium tuberculosis, UniProt P9WMR3); assay: DnaB intein splicing inhibitors, dose response, biochemical, cell-free fluorescence (AID 449749); format: functional
T7 sequence (P9WMR3 whole entry): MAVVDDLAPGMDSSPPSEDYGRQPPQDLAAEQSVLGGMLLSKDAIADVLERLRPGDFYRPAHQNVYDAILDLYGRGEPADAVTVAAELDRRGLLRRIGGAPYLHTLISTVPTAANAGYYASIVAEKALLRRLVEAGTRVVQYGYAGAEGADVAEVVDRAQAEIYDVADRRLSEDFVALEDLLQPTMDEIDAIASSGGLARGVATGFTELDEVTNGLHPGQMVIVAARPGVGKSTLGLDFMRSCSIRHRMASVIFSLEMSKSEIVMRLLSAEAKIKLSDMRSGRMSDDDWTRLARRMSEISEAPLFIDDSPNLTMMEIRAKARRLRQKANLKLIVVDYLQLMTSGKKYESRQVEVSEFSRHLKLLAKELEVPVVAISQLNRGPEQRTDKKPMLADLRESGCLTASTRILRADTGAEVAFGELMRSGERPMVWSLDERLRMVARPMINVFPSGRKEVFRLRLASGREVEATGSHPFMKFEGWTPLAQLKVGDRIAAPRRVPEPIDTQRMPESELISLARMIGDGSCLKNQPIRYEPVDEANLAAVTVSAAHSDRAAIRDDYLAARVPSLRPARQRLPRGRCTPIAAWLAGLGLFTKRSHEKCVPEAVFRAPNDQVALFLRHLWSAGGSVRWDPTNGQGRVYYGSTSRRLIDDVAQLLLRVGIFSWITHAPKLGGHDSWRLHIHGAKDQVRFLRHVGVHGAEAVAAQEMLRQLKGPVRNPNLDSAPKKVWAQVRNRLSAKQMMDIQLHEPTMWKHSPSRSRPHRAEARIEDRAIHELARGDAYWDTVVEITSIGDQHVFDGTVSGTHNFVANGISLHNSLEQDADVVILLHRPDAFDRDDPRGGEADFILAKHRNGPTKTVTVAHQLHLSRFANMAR

[21] = tested on: HEK293; assay: EBV LMP1 TES2 canonical NF-kB signalling blockers – cell-based, HEK293, luciferase, cherry-pick, dose response (AID 588343); format: functional; conditions: Homo sapiens
[22] = fluconazole-exposed Candida albicans growth modulators – fluorescence, retest, confirmation (AID 2467); format: functional, cell-based
[23] = NIH-3T3 fibroblast cytotoxicity, dose response, cytotoxicity control, cell-based, fluorescence, Alamar Blue, secondary assay (AID 2327); format: functional;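 also: NIH-3T3 mouse fibroblasts cultured with fluconazole at 8 µg/mL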

T3 sequence (P49327 whole entry): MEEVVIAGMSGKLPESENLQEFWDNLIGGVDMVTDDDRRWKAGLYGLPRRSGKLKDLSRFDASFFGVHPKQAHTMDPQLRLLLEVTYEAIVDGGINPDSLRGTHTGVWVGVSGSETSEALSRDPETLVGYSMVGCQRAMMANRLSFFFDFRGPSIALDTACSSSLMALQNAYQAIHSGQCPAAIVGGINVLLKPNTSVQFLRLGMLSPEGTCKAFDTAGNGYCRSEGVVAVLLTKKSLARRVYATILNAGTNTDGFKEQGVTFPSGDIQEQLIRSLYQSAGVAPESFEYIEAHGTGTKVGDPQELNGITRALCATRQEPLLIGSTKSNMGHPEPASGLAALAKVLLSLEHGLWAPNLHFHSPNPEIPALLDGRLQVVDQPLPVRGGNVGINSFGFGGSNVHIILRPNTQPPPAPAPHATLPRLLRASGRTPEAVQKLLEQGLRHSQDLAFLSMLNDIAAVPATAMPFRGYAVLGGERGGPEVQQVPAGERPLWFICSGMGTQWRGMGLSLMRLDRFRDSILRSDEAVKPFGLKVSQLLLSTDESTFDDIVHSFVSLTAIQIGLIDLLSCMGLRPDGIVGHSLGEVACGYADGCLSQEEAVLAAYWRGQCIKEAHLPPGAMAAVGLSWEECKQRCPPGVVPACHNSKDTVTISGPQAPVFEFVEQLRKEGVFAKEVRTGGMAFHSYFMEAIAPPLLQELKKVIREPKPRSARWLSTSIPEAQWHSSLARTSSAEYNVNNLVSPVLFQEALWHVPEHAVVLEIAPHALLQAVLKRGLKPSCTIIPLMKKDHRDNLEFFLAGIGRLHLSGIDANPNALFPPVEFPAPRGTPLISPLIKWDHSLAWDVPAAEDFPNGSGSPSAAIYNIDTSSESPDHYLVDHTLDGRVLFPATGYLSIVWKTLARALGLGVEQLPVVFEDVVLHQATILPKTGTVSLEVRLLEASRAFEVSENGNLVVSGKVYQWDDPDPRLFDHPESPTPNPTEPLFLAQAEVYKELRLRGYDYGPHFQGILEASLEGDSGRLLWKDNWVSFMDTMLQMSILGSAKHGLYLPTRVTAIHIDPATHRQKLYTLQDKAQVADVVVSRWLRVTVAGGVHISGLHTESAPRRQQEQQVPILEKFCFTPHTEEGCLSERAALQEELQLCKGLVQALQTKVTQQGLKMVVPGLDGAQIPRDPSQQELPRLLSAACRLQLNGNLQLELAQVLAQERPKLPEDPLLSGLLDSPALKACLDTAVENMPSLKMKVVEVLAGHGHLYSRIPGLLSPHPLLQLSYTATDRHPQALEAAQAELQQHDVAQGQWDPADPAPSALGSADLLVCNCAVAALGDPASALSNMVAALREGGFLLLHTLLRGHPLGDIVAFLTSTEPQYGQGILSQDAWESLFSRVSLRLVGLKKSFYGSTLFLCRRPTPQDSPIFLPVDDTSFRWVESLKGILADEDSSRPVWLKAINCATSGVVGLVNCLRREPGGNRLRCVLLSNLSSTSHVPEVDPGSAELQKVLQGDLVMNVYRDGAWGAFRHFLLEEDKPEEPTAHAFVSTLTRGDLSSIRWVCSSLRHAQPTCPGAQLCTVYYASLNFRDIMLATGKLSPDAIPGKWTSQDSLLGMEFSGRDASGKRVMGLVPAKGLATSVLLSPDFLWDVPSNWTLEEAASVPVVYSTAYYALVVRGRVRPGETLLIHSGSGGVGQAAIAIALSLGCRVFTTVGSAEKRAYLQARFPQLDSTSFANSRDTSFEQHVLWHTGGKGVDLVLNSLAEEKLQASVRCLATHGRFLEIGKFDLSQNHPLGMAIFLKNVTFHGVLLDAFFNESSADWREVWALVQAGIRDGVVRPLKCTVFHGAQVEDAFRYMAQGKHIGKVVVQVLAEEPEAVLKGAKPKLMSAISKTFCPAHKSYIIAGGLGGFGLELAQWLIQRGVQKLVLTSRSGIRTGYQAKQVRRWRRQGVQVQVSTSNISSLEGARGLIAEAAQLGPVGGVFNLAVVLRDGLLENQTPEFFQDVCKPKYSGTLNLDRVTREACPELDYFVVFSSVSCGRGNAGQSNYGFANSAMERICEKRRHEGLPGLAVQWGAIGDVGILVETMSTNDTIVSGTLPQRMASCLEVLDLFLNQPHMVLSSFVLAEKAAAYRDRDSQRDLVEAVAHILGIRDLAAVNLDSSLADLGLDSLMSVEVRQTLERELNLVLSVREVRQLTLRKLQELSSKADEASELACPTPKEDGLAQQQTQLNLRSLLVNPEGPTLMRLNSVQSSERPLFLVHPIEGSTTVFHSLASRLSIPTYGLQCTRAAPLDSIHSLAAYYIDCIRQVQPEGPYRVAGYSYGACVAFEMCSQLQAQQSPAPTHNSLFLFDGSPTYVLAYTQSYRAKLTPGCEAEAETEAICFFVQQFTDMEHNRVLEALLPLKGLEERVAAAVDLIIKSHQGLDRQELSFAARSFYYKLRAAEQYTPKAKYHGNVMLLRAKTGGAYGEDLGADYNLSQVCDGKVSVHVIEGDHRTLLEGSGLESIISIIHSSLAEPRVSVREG
Sequence of Induced myeloid leukemia cell differentiation protein Mcl-1 (Q07820 whole entry): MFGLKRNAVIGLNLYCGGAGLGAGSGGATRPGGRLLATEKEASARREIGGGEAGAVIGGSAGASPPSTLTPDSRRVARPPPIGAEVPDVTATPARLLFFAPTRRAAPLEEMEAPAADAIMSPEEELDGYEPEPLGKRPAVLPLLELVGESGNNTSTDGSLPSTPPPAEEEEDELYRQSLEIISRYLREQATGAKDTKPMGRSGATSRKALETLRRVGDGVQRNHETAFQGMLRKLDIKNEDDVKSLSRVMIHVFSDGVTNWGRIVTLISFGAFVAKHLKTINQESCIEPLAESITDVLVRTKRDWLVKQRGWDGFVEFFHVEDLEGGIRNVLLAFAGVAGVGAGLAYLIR
Sequence of Nonstructural protein 1 (Q194T2 whole entry): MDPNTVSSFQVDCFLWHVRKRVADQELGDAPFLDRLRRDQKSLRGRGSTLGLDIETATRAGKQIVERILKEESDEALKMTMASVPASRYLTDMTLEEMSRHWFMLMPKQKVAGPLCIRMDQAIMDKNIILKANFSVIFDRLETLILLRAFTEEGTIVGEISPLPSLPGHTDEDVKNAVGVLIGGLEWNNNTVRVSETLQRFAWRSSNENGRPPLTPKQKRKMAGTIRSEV

## Cc1ccc(-c2nnc(N3CCN(C(=O)CSc4nc[nH]n4)CC3)c3ccccc23)cc1
[1]
  AC50: 1.07 µM (active)

## COc1ccc(C2CC(c3cccs3)=NN2C(=O)CSc2nc(=O)n3cc(C)ccc3n2)cc1 (stereo unspecified)
[2]
  EC50: > 350 µM (not active)
[3]
  EC50: > 350 µM (not active)

## Cc1ccc(Cc2c(C)nc3nc(SCC(=O)NCCCN4CCCCC4)nn3c2C)cc1
[1]
  AC50: 11.1 µM (active)

## N=C(NOC(=O)c1cccs1)c1ccc(Cl)cc1
[2]
  EC50: 7.41 µM (active)
[3]
  EC50: > 350 µM (not active)

## CC(Oc1ccc2ccc(=O)oc2c1)C(=O)N1CCOCC1 (stereo unspecified)
[1]
  AC50: 6.85 µM (active)

## COc1ccc2oc(C(=O)Nc3ccccn3)c(C)c2c1
[4]
  EC50: > 67.5 µM (inactive)
[5]
  EC50: > 67.5 µM (inactive)

## Cc1cccc(-c2cc3c(N=O)c4ccccc4c-3[nH]n2)c1
[6]
  EC50: > 60 µM (not active)
[7]
  EC50: 4.86 µM (active)
[4]
  EC50: > 67.5 µM (inactive)
[5]
  EC50: > 67.5 µM (inactive)

## Oc1ccccc1NCC(O)Cn1ccc2ccccc21 (stereo unspecified)
[8]
  IC50: 4.49 µM (active)
[9]
  CC50: > 40 µM (active)
[10]
  EC50: 12.8 µM (active)
[11]
  EC50: 13.2 µM (active)

## Cc1cc2oc3c(c(=O)c2cc1C)C(c1cccc(Br)c1)N(Cc1ccco1)C3=O (stereo unspecified)
[12]
  EC50: 8.39 µM (active)
[10]
  EC50: > 20 µM (not active)
[13]
  EC50: 9.43 µM (active)
[11]
  EC50: > 20 µM (not active)

## COc1ccc(N=C(S)Nc2ccccn2)c(OC)c1
[2]
  EC50: 53.6 µM (active)
[3]
  EC50: > 350 µM (not active)

## COc1cc(/C=N/NC(=O)c2cncc(Br)c2)cc([N+](=O)[O-])c1O
[14]
  IC50: 9.66 µM (active)
[15]
  EC50: 0.977 µM (active)
[16]
  IC50: 18.7 µM (active)
[17]
  IC50: 4.26 µM (active)

## O=C(c1ccccc1F)N1CC[C@@H]2[C@H](CO)Nc3ccc(Br)cc3[C@@H]21
[1]
  AC50: 1.81 µM (active)

## CCOc1ccc(-c2c(C(=O)N/N=C/c3cccs3)nnn2-c2nonc2N)cc1
[18]
  AC50: 5.5 µM (active)

## CCN(CC)c1ccc(/C=N/Nc2nc(C)cc(O)n2)c(O)c1
[2]
  EC50: > 350 µM (not active)
[19]
  EC50: 28 µM (active)
[20]
  AC50: > 380 µM (inactive)
[21]
  AC50: 1.75 µM (active)
[3]
  EC50: 6.92 µM (active)
[22]
  EC50: 1.09 µM (active)
[23]
  EC50: 3.13 µM (active)

## COc1cccc(/C=N/NC(=O)CNC(=O)C(c2ccccc2)c2ccccc2)c1O
[2]
  EC50: > 350 µM (not active)
[3]
  EC50: 30.6 µM (active)

## NC(=S)n1nc(-c2ccc([N+](=O)[O-])cc2)c(/N=N/c2ccc(Cl)cc2)c1O
[14]
  IC50: 9.27 µM (active)
[16]
  IC50: 17.5 µM (active)
[8]
  IC50: > 54 µM (active)
